Laboratory results published in patent publication US12384825B2, “Monomeric peptide multi-agonist targeting the GLP1 receptor and NPY receptors” (Syracuse University, priority 2019, dated 2025).
“Also recorded” adds a separate entry of the source. Where no end group is shown, it is not given here. [ ]: non-standard residue; d: D form. Lys(N3) = [N-]=[N+]=NCCCC[C@H](N)C(=O)O

Assays:
[1] = Dose escalation study, food intake in rats; format: in vivo, rat
Procedure: Dose Escalation Study. Lean Sprague Dawley rats (350 g) were individually housed in cages capable of recording food intake (Accuscan Diet cages). The animal room was maintained on a 12-h light/12-hour dark cycle. The study design consisted of sequential rounds of a 2-day baseline phase, a 2-day treatment phase, and a 2-day washout phase. Body weight was assessed daily just prior to the start of the dark cycle, food and kaolin intake were available ad libitum and consumption was continuously recorded. Treatment doses were administered just prior to the start of the dark cycle via subcutaneous injection.

[2] = biological target: T1, human NPY2-R (Homo sapiens, UniProt P49146); assay: FRET assay at Y2-R, mitigation of adenosine stimulated cAMP at the A2b receptor (EPAC2/H188, HEK293); format: cell-based
T1 construct: host or cells: HEK293 (H188 FRET reporter)
T1 sequence (P49146 1-381): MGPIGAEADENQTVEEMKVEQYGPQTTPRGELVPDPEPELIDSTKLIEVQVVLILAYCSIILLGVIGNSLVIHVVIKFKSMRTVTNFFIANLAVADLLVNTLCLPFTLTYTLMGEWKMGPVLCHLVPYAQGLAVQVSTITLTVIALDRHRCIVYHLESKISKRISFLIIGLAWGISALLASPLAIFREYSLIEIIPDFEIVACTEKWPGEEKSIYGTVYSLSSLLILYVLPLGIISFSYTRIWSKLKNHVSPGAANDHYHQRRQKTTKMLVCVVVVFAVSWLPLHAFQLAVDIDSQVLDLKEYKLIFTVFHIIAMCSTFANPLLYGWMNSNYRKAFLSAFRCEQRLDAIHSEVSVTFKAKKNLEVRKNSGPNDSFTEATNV

[3] = 5-day treatment in diet-induced obese (DIO) rats; format: in vivo, rat; details: diet-induced obese Sprague-Dawley rats, 10 nmol/kg once daily, 5 d
Description: Diet Induced Obese (DIO) rats. To generate DIO rats, young (4-wk of age) lean male Sprague Dawley rats (Charles River Laboratories, Inc. Wilmington, MA; strain code 001) were placed on a high fat diet (HFD; D12492, 60% kcal from fat, Research Diets, New Brunswick, NJ) for 4-5 months prior to the start of the experiments to attain >20% of body fat. During this time, animals had ad libitum access to food and water.
5-day Treatment in DIO rats. DIO Sprague Dawley rats (2 cohorts; 826.1 g n=9, and 642.3 g n=5) were individually housed and the animal room was maintained on a 12-h light/12-hour dark cycle. During the 5-day baseline phase, animals were administered vehicle (0.9% sterile saline solution, injectable) injections just prior to the start of the dark cycle. At the end of the baseline phase, animals were grouped based on body weight, average daily body weight gain, and food intake. […] Throughout the experiment, body weight and food intake (via hopper weighs) were assessed daily just prior to the start of the dark cycle. Fasting blood glucose was tested prior to the baseline phase and at the end of the treatment phase via handheld glucometer (One Tough Ultra).

[4] = tested on: rat pancreatic islets; assay: Static glucose stimulated insulin secretion (GSIS) in rat islets; format: cell-based; details: 10 mM glucose, 50 nM peptides
[5] = IPGTT in shrews; format: in vivo, shrew
[6] = Intraperitoneal glucose tolerance testing after 5-d treatment in rats; format: in vivo, rat; details: 10 nmol/kg, pre-diabetic (DIO) rats
Procedure: DIO Sprague Dawley rats (803.0±102.7 g n=7) were administered a pre-treatment IPGTT with a vehicle injection. Animals were grouped based on body weight, Lee Index (a measure of adiposity; lee index=weight1/3/nasoanal length), and baseline IPGTT blood glucose excursion. […] On treatment day 5, a repeat IPGTT was performed with the assigned treatment. All weights noted are mean±Std. Dev. Metabolic testing. Intraperitoneal glucose tolerance testing (IPGTT) was performed following a 6-h fast such that the glucose bolus occurred at the start of the dark cycle; all animal handling is performed under red light. […] A second baseline sample was obtained 30 minutes later, immediately prior to the dextrose bolus (1.5 g/kg dextrose, 20% solution). Additional blood glucose measurements were taken 7, 15, 30, 45, 60, and 120 minutes post-bolus. All blood glucose measurements were made via handheld glucometers (One Touch Ultra) in duplicate; if the variation between the two measures was >5%, a third measurement was taken.

[7] = tested on: rat islets; assay: Insulin secretion rate in rat islet cell perifusion, exposure and washout; format: cell-based
[8] = biological target: human GLP-1R (Homo sapiens, UniProt P43220); assay: FRET reporter assay tracking cAMP stimulation at the GLP-1R (EPAC2/H188 sensor, HEK293 cells); format: cell-based; details: FIG. 7
Sequence of human GLP-1R (P43220 24-463): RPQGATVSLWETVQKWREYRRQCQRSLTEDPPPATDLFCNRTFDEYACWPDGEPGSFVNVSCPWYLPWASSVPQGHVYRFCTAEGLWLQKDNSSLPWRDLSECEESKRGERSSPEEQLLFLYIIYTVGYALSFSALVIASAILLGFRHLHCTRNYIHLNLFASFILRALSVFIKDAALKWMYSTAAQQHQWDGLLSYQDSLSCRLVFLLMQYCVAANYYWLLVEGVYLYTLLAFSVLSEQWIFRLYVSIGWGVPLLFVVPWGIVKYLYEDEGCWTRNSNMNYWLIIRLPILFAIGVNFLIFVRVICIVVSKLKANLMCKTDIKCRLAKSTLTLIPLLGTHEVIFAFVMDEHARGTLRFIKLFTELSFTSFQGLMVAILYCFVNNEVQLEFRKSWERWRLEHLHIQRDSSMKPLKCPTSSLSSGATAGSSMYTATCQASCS

[9] = tested on: human islets; assay: Insulin release in human islets; format: cell-based
[10] = tested on: perifused isolated rat islets; assay: Cytokine-induced damage of perifused isolated rat islets (OCR, membrane permeability); format: cell-based; details: cytokines IFN-γ, TNF-α, IL-1β
[11] = biological target: T2, human NPY1-R (Homo sapiens, UniProt P25929); assay: FRET assay at Y1-R, mitigation of adenosine stimulated cAMP at the A2b receptor (EPAC2/H188, HEK293); format: cell-based; details: cells expressing Y1-R, partial antagonist
T2 construct: host or cells: HEK293 (H188 FRET reporter)
T2 sequence (P25929 1-384): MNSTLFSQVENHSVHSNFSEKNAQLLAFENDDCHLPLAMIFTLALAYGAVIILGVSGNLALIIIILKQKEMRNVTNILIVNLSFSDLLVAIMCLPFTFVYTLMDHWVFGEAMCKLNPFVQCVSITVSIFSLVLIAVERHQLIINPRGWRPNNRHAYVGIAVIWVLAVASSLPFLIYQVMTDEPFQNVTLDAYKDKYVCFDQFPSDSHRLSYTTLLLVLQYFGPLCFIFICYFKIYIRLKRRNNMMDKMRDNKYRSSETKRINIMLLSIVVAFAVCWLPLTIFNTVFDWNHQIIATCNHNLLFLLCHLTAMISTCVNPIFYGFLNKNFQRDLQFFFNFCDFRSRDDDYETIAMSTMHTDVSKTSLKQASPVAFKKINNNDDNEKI

| signalling via the Y2-R, cAMP production ([2]; FIG. 7) | signalling via the GLP-1R, cAMP production [8] | block of GEP44 agonism by antagonist at Y2-R ([2]; FRET, cells expressing Y2-R, potent antagonist) | block of GEP44 agonism by antagonist at Y1-R [11] | Molecule | 2-d avg. FI ([1]; 10 nmol/kg/d, rats) | reduction in food intake over 2 days ([1]; 20 nmol/kg daily, lean Sprague-Dawley rats) | 2-d avg. FI ([1]; 30 nmol/kg/d, rats) | reductions in FI ([1]; preliminary dose escalation studies, dose not stated) | food intake (in words) ([1]; rats, dose escalation, 2-d on each dose) | body weight [3] | fasting blood glucose [3] | food intake [3] | glucose stimulated insulin secretion (GSIS), as ISR [4] | glucoregulation (IPGTT) [5] | blood glucose during intraperitoneal glucose tolerance testing, GEP44 vs Ex4 [6] | insulin secretion rate (ISR) ([7]; acute exposure) | persistence of the effect on insulin secretion after washout ([7]; exposure and washout) | insulin release in human islets [9] | fall in cytokine-induced OCR [10] |
| --- | --- | --- | --- | --- | --- | --- | --- | --- | --- | --- | --- | --- | --- | --- | --- | --- | --- | --- | --- |
| stimulate cAMP production | stimulate cAMP production | – | – | H[dS]QGTFTSDLS[Lys(N3)]YLEEEAVREFIAWLKNGGPSRHYLNLVTRQRY-NH2 [GEP44] | −58% | −81.4% | −84% | > 88% | robust reduction of FI; also recorded: robust reduction of food intake | sustained weight loss | reduced fasting blood glucose; also recorded: significant reduction in fasting blood glucose | reduced food intake | stimulated GSIS; also recorded: significantly increased | confirmed glucoregulation | stronger reductions in blood glucose | significantly increased | more sustained vs. Ex-4 | capable of stimulating insulin release | slowed the fall in cytokine-induced OCR |
| – | – | blocked GEP44 agonism | blocked GEP44 agonism | N=C(N)NCCC[C@H](NC(=O)CC1(CC(=O)N2CCN(C3c4ccccc4NC(=O)c4ccccc43)CC2)CCCC1)C(=O)NCCn1c(=O)n(-c2ccccc2)n(-c2ccccc2)c1=O (stereo partly shown) [BIIE0246, reference compound] | – | – | – | – | – | – | – | – | – | – | – | – | – | – | – |
